From paper PMC11962866 (RSC Advances, 2025)
In brackets after ≈: the same amount, converted by molar mass. Entries after “also recorded” stand apart in the source; their conditions may differ.

Tests used:
[1] = tested on: C. alb (SC5314); assay: In vitro antifungal assay; format: cell-based; settings: Candida albicans, SC5314, read-out: MIC80 C. alb (SC5314)
[2] = tested on: C. neo; assay: In vitro antifungal assay; format: cell-based; settings: Cryptococcus neoformans, read-out: MIC80 C. neo
[3] = tested on: Strain 904; assay: Antifungal activity against fluconazole-resistant strain; format: cell-based, Candida albicans; settings: for MIC80: Candida albicans, 904, read-out: MIC80 Strain 904; for MIC: Candida albicans, 904, read-out: MIC against C. alb
[4] = tested on: Strain 901; assay: as above; format: cell-based; settings: Candida albicans, 901, read-out: MIC80 Strain 901
[5] = tested on: Strain 632; assay: as above; format: cell-based; settings: Candida albicans, 632, read-out: MIC80 Strain 632
[6] = tested on: Strain 17#; assay: as above; format: cell-based; settings: Candida albicans, read-out: MIC80 Strain 17#
[7] = tested on: Strain CaR; assay: as above; format: cell-based; settings: Candida albicans, read-out: MIC80 Strain CaR
[8] = tested on: strain 904, fluconazole-resistant strain of C. albicans; assay: Minimum fungicidal concentration; format: cell-based, Candida albicans
[9] = Metabolic stability assay of liver microsomes; format: in vitro ADME; settings: mouse
[10] = tested on: MRC-5 cells; assay: Cytotoxicity assay on normal cells; format: cell-based, human; settings: Homo sapiens, MRC5, 72 h, read-out: IC50 on MRC-5 cell lines
[11] = tested on: azole-resistant strain 904; assay: In vivo antifungal potency, mouse infection model, kidney fungal burden; settings: mice, tail vein infection with strain 904, intraperitoneal, day 5
[12] = tested on: C. alb SC5314; assay: GC-MS analysis of sterol composition; format: cell-based, Candida albicans; settings: 0.03 μg mL^−1, 24 h
[13] = tested on: C. alb SC5314; assay: Morphological observation of fungal cells by TEM; format: cell-based, Candida albicans; settings: 2 μg mL^−1, 24 h
[14] = tested on: azole-resistant strain 904; assay: Yeast-to-hypha morphological transition; format: cell-based, Candida albicans; settings: 0.25 μg mL^−1, 5 h
[15] = tested on: azole-resistant strain 904; assay: Biofilm formation; format: cell-based, Candida albicans
[16] = tested on: ERG11 and CDR1 of azole-resistant strain 904; assay: RT-PCR expression of resistant genes ERG11 and CDR1; format: cell-based, Candida albicans; settings: 0.25 μg mL^−1, strain 904, RT-PCR
[17] = tested on: Strain 904; assay: Time-kill test; format: cell-based, Candida albicans; settings: A11 at 8 × MIC, 16 × MIC, 32 × MIC
[18] = tested on: Strain 904; assay: ROS level; format: cell-based, Candida albicans; settings: 0.25 μg mL^−1, compared to blank and fluconazole groups
[19] = tested on: five fluconazole-resistant strains obtained from clinical isolation; assay: Antifungal activity, span over five fluconazole-resistant strains; format: cell-based, Candida albicans
[20] = Plasma stability assay; settings: male, SD, rat

Row | SMILES | MIC80 [1] | MIC80 [2] | MIC80 [3] | MIC [3] | MIC80 [4] | MIC80 [5] | MIC80 [6] | MIC80 [7] | half-life [9] | microsomal CLint [9] | IC50 [10] | Efficacy in vivo (CFU fungal burden in kidneys) [11] | Effect on ergosterol biosynthesis / sterol composition [12] | Fungal cell morphology (TEM) [13] | Morphological transition from yeast to hyphae [14] | Expression of ERG11 and CDR1 [16] | half-life [20] | remaining at 3 h [20] | further results
1 | O=C(Nc1ccc(F)cc1F)c1ccc(COC(Cn2ccnc2)c2ccc(Cl)cc2Cl)cc1 (stereo not shown) [A11, 4-((1-(2,4-Dichlorophenyl)-2-(1H-imidazol-1-yl)ethoxy)methyl)-N-(2,4-difluorophenyl)benzamide] | 0.03 µg/mL (≈ 0.0597 µM) | 0.06 µg/mL (≈ 0.119 µM) | 0.125 µg/mL (≈ 0.249 µM) | 0.125 µg/mL (≈ 0.249 µM) | 1 µg/mL (≈ 1.99 µM) | 2 µg/mL (≈ 3.98 µM) | 1 µg/mL (≈ 1.99 µM) | 2 µg/mL (≈ 3.98 µM) | 0.258 h | 89.4 µL/min/mg | > 100 µM | potent efficacy; also recorded: significantly reduced fungal burden | effectively suppresses ergosterol biosynthesis | disrupt the structural integrity of the cells | completely hindered the morphogenetic transition | reduced to basic levels | > 6 h | 73.9% | MFC/MIC ([8]; strain 904): 16; Effect on mature biofilms [15]: dose-dependent destruction of mature fungal biofilms; Time-kill fungicidal effect [17]: potent fungicidal effects at three concentrations; Intracellular ROS levels [18]: significant increase in intracellular ROS levels; MIC80 ([19]; Candida albicans, read-out: MIC80 span over the tested resistant strains): 0.125 to 2 µg/mL (≈ 0.249 to 3.98 µM)
2 | OC(Cn1cncn1)(Cn1cncn1)c1ccc(F)cc1F [Fluconazole, fluconazole, reference compound] | 4 µg/mL (≈ 13.1 µM) | 8 µg/mL (≈ 26.1 µM) | > 128 µg/mL | > 128 µg/mL | > 128 µg/mL | > 128 µg/mL | > 128 µg/mL | > 128 µg/mL | > 2 h | 2 µL/min/mg | > 100 µM | ineffective | effectively suppresses ergosterol biosynthesis | the cell membrane was damaged | did not inhibit the morphological transition | overexpression of drug resistance gene ERG11 and CDR1 | > 6 h | 102% | MFC ([8]; Candida albicans, read-out: MFC against C. alb): > 128 µg/mL; Antifungal activity against the tested resistant strains (in words) [19]: completely inactive
